Columns and labels:
Type in all cases: in vivo
Botrytis cinerea = experiment: Tomato gray mold (GM) control test; settings: Table 9: monosaccharide 10% liquid preparation, no assistant, 10-fold dilution (monosaccharide 1%)
Experimental: (GM: Gray Mold) Test plants (tomato variety: Oogata Fukuju) were planted followed by cultivating until three first leaves appeared. In the test, dilutions (5 ml/pot) obtained by diluting with distilled water so that each formula reached a prescribed concentration were sprayed. After inoculating the seedlings one day after spraying by spraying with 1×10^7 organisms/ml of conidia of Botrytis cinerea, the seedlings were allowed to stand for about 48 hours in an inoculation room at a room temperature of 20° C. to 23° C. to promote the onset of disease. Disease development was investigated 2 days after inoculation, and the effects thereof were evaluated. Disease development was evaluated using the following indicators for disease control tests evaluated according to the methods described above. Furthermore, preventive values were calculated based on the disease development.

Magnaporthe grisea = settings: Table 9: monosaccharide 10% liquid preparation, no assistant, 10-fold dilution (monosaccharide 1%)
[1] = test system: Pseudoperonospora cubensis; experiment: Cucumber downy mildew (CDM) control test
Sphaerotheca cucurbitae = experiment: Cucumber powdery mildew (CPM) control test; settings: Table 9: monosaccharide 10% liquid preparation, no assistant, 10-fold dilution (monosaccharide 1%)
[2] = test system: Rhizoctonia solani AGI-IA; experiment: Rice sheath blight (SB) control test; settings: Table 9: monosaccharide 10% liquid preparation, no assistant, 10-fold dilution (monosaccharide 1%)
Experimental: (SB: Sheath Blight) Test plants (rice variety: Sachikaze) were planted followed by cultivating until the third leaf appeared. In the test, dilutions (5 ml/pot) obtained by diluting with distilled water so that each formula reached a prescribed concentration were sprayed. After inoculating the seedlings one day after spraying with clumps of Rhizoctonia solani AGI-IA cultured for 14 days in oat medium, the seedlings were allowed to stand for about 24 hours in an inoculation room at a room temperature of 28° C. to promote the onset of disease. Disease development was investigated 14 days after inoculation, and the effects thereof were evaluated. Disease development was evaluated using the following indicators for disease control tests evaluated according to the methods described above. Furthermore, preventive values were calculated based on the disease development.

Plasmopara viticola = experiment: Grape vine downy mildew (VDM) control test; settings: Table 9: monosaccharide 10% liquid preparation, no assistant, 10-fold dilution (monosaccharide 1%)
Phytophthora infestans = settings: Table 9: monosaccharide 10% liquid preparation, no assistant, 10-fold dilution (monosaccharide 1%)
Venturia inaequalis = experiment: Apple scab (AS) control test; settings: Table 9: monosaccharide 10% liquid preparation, no assistant, 10-fold dilution (monosaccharide 1%)
Experimental: (AS: Apple Scab) Test plants (apple variety: Ohrin) were planted followed by cultivating until four first leaves appeared. In the test, dilutions (5 ml/pot) obtained by diluting with distilled water so that each formula reached a prescribed concentration were sprayed. After inoculating the seedlings one day after spraying by spraying with 1×10^5 organisms/ml of conidia of Venturia inaequalis, the seedlings were allowed to stand for about 24 hours in an inoculation room at a room temperature of 18° C. to 20° C. to promote the onset of disease. Disease development was investigated 10 days after inoculation, and the effects thereof were evaluated. Disease development was evaluated using the following indicators for disease control tests evaluated according to the methods described above. Furthermore, preventive values were calculated based on the disease development.

Ralstonia solanacearum = settings: Table 9: monosaccharide 10% liquid preparation, no assistant, 10-fold dilution (monosaccharide 1%)
[3] = Table 8: D-tagatose liquid preparation with assistant (5 parts), 10-fold dilution (D-tagatose 0.5%+assistant 0.5%), improvement vs D-tagatose only

D-mannose
preventive value GM (Botrytis cinerea): (16) | preventive value B (Magnaporthe grisea): (17) | Evaluation Score CDM [1, 3]: 2 (Improvement in preventive value of 10 to less than 20) | preventive value CPM (Sphaerotheca cucurbitae): (33) | preventive value SB [2]: (60)

O=C(O)c1ccccc1 [Benzoic acid]
Evaluation Score CDM ([1]; in vivo): 0

O=C(CO)[C@H](O)[C@@H](O)[C@@H](O)CO [L-fructose]
preventive value GM (Botrytis cinerea): (40) | preventive value B (Magnaporthe grisea): (0) | preventive value CPM (Sphaerotheca cucurbitae): (33) | preventive value SB [2]: (60) | preventive value VDM (Plasmopara viticola): (0)

Stachyose
Evaluation Score CDM [1, 3]: 1 (Improvement in preventive value of 1 to less than 10)

Nc1ccn([C@@H]2O[C@H](CO)[C@@H](O)[C@H]2O)c(=O)n1 [Cytidine]
Evaluation Score CDM [1, 3]: 1 (Improvement in preventive value of 1 to less than 10)

O=C[C@H](O)[C@@H](O)[C@@H](O)[C@H](O)C(=O)O [D-galacturonic acid]
Evaluation Score CDM [1, 3]: 3 (Improvement in preventive value of 20 to less than 30)

O=C[C@H](O)[C@@H](O)[C@@H](O)[C@H](O)CO [D-galactose]
preventive value GM (Botrytis cinerea): (33) | preventive value LB (Phytophthora infestans): (0) | preventive value AS (Venturia inaequalis): (66) | preventive value B (Magnaporthe grisea): (17) | Evaluation Score CDM [1, 3]: 1 (Improvement in preventive value of 1 to less than 10) | preventive value CPM (Sphaerotheca cucurbitae): (0) | preventive value SB [2]: (60) | preventive value VDM (Plasmopara viticola): (0) | preventive value TBW (Ralstonia solanacearum): (25)

D-glucose
Evaluation Score CDM [1, 3]: 1 (Improvement in preventive value of 1 to less than 10)

Nc1cc[nH]c(=O)n1 [Cytosine]
Evaluation Score CDM [1, 3]: 0

L-leucine
Evaluation Score CDM [1, 3]: 3 (Improvement in preventive value of 20 to less than 30)

OC[C@H]1OC(O)[C@H](O)[C@H](O)[C@@H]1O (stereo partly drawn) [D-allose]
preventive value GM (Botrytis cinerea): (33) | preventive value LB (Phytophthora infestans): (60) | preventive value AS (Venturia inaequalis): (66) | preventive value B (Magnaporthe grisea): (40) | preventive value CPM (Sphaerotheca cucurbitae): (17) | preventive value SB [2]: (60) | preventive value VDM (Plasmopara viticola): (40)

OC[C@@H](O)[C@H](O)[C@@H](O)CO [Xylitol]
Evaluation Score CDM [1, 3]: 2 (Improvement in preventive value of 10 to less than 20)

O=C(CO)[C@@H](O)[C@H](O)CO [D-xylulose]
Evaluation Score CDM [1, 3]: 1 (Improvement in preventive value of 1 to less than 10)

C[C@@H](O)[C@H](O)[C@H](O)[C@@H](O)C=O [D-fucose]
Evaluation Score CDM [1, 3]: 2 (Improvement in preventive value of 10 to less than 20)

O=C[C@@H](O)[C@@H](O)[C@@H](O)[C@H](O)CO [D-talose]
preventive value B (Magnaporthe grisea): (50) | Evaluation Score CDM [1, 3]: 2 (Improvement in preventive value of 10 to less than 20) | preventive value CPM (Sphaerotheca cucurbitae): (17) | preventive value SB [2]: (30) | preventive value VDM (Plasmopara viticola): (0)

C[N+](C)(C)CC(O)CC(=O)[O-] (racemic) [DL-carnitine]
Evaluation Score CDM [1, 3]: 2 (Improvement in preventive value of 10 to less than 20)

O=CC[C@H](O)[C@H](O)CO [Formula 2-deoxy-D-ribose, 2-deoxy-D-ribose]
Evaluation Score CDM [1, 3]: 4 (Improvement in preventive value of 30 to less than 40)

OC[C@H]1O[C@@](CO)(O[C@H]2O[C@H](CO)[C@@H](O)[C@H](O)[C@H]2O)[C@@H](O)[C@@H]1O [Sucrose]
Evaluation Score CDM [1, 3]: 1 (Improvement in preventive value of 1 to less than 10)

CC(=O)O [Acetic acid]
Evaluation Score CDM [1, 3]: 1 (Improvement in preventive value of 1 to less than 10)

Nc1ncnc2c1ncn2[C@@H]1O[C@H](CO)[C@@H](O)[C@H]1O [Adenosine]
Evaluation Score CDM [1, 3]: 0

O=C(CO)[C@H](O)[C@H](O)[C@H](O)CO [D-psicose]
preventive value GM (Botrytis cinerea): (50) | preventive value LB (Phytophthora infestans): (47) | preventive value AS (Venturia inaequalis): (50) | preventive value B (Magnaporthe grisea): (50) | Evaluation Score CDM [1, 3]: 3 (Improvement in preventive value of 20 to less than 30) | preventive value CPM (Sphaerotheca cucurbitae): (17) | preventive value SB [2]: (40) | preventive value VDM (Plasmopara viticola): (0)

NC(=O)C[C@H](N)C(=O)O [L-asparagine]
Evaluation Score CDM [1, 3]: 1 (Improvement in preventive value of 1 to less than 10)

O=c1ccn([C@@H]2O[C@H](CO)[C@@H](O)[C@H]2O)c(=O)[nH]1 [Uridine]
Evaluation Score CDM [1, 3]: 0

O=C(O)CC(=O)O [Malonic acid]
Evaluation Score CDM [1, 3]: 0

O=C(CO)[C@@H](O)[C@H](O[C@H]1O[C@H](CO)[C@@H](O)[C@H](O)[C@H]1O)[C@H](O)CO [Maltulose]
Evaluation Score CDM [1, 3]: 1 (Improvement in preventive value of 1 to less than 10)

Lactose
Evaluation Score CDM [1, 3]: 1 (Improvement in preventive value of 1 to less than 10)

L-alanine
Evaluation Score CDM [1, 3]: 2 (Improvement in preventive value of 10 to less than 20)

O=C[C@H](O)[C@H](O)[C@H](O)CO [D-ribose]
Evaluation Score CDM [1, 3]: 2 (Improvement in preventive value of 10 to less than 20)

C[C@@H](O)[C@H](N)C(=O)O [L-threonine]
Evaluation Score CDM [1, 3]: 1 (Improvement in preventive value of 1 to less than 10)

O=C1O[C@H](CO)[C@@H](O)[C@H](O)[C@H]1O [D-gluconolactone]
Evaluation Score CDM [1, 3]: 2 (Improvement in preventive value of 10 to less than 20)

O=c1cc[nH]c(=O)[nH]1 [Uracil]
Evaluation Score CDM [1, 3]: 1 (Improvement in preventive value of 1 to less than 10)

Nc1nc2nc[nH]c2c(=O)[nH]1 [Guanine]
Evaluation Score CDM ([1]; in vivo): 0

CSCC[C@H](N)C(=O)O [L-methionine]
Evaluation Score CDM [1, 3]: 2 (Improvement in preventive value of 10 to less than 20)

O=C(CO)[C@H](O)[C@@H](O)[C@H](O)CO [D-sorbose]
preventive value GM (Botrytis cinerea): (33) | preventive value LB (Phytophthora infestans): (33) | preventive value AS (Venturia inaequalis): (33) | preventive value B (Magnaporthe grisea): (17) | Evaluation Score CDM [1, 3]: 2 (Improvement in preventive value of 10 to less than 20) | preventive value CPM (Sphaerotheca cucurbitae): (17) | preventive value SB [2]: (40) | preventive value VDM (Plasmopara viticola): (0)
